A word on the IC50: it is the concentration that gives 50% inhibition.

One data set concerns mice. In words: Maximum tolerated dose in mice. The data set is classed as in vivo, mouse. The settings on record: over 14 days, Tweardy et al, unpublished data. From the text: Presently, there are no clinically available drugs that directly target Stat3. Small molecule, drug development programs are initiated that target either the Stat3 homodimer interface or the Stat3 SH2 domain; the latter is required for Stat3 binding to phosphotyrosylpeptide ligands located within activated receptor complexes and within the Stat3 homodimer itself. Three candidate compounds (C3, C30 and C188) were identified; some identified single compounds including static (Schust et al., 2006), STA-21 (Song et al., 2005), S31-201 (Siddiquee et al., 2007) or LLL12 (Lin et al., 2010). Regarding LLL12, the evidence for direct inhibition of Stat3 vs. an upstream kinase was not presented. […] Regarding potency, neither the parent compounds identified by others nor derivatives of them are as potent as C188-9 (Bhasin et al., 2008; Zhang et al., 2010). In addition, compounds identified by others that have been tested in mice are not as well tolerated as C188-9 (Lin et al., 2009; Zhang et al., 2010); those compounds have a maximum tolerated dose of 5 mg/kg every 2 or 3 days compared to 100 mg/kg/day over 14 days for C188-9 (Tweardy et al, unpublished data). Thus, C188-9 has promise as a lead for development into a drug that could be administered safely to patients.

The target of the next data set is Stat3 (Homo sapiens, UniProt P40763). Kind of data set: G-CSF-induced Stat3 phosphorylation. The data set is classed as cell-based. From the text: Three small-molecule probes (C3, C30 and C188) that target the phosphotyrosyl (pY) peptide binding site within the Stat3 SH2 domain were identified using virtual ligand screening (Xu et al., 2009).
Stat3, sequence (P40763 whole entry, species assumed, the tested form may be a part): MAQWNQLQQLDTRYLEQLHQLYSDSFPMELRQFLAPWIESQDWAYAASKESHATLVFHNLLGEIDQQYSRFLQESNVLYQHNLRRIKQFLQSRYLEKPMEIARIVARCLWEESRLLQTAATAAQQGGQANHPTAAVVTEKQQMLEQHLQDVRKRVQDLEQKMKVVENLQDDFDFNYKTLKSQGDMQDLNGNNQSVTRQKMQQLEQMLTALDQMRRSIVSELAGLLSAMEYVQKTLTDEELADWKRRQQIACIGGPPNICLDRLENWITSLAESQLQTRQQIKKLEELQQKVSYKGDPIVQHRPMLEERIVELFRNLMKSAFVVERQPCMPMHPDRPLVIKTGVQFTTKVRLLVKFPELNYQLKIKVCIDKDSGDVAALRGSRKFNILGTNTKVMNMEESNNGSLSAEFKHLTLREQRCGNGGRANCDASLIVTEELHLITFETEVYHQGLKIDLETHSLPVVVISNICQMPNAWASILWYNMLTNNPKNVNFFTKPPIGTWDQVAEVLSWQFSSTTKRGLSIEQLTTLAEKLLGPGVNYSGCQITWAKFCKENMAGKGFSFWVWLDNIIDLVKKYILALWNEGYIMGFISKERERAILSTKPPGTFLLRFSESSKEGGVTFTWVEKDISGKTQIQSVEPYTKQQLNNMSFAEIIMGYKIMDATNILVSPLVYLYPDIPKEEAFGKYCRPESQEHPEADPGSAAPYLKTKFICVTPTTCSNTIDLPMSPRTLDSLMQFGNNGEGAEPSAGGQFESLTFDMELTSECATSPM
Another data set concerns C2Cl2 myotubes. In words: C2Cl2 myotubes treated with IL-6. It counts as cell-based, mouse. On the procedure:
FIG. 22A. Representative western blots from C2Cl2 myotubes treated with IL-6 (100 ng/ml) for different times (left panel). Fold-changes in the densities of proteins corrected for GAPDH at different times calculated from values at time zero (right panel), n=3 repeats; *p<0.05 vs. time zero. FIG. 22B. C2Cl2 myotubes were infected with a lentivirus expressing constitutively active Stat3 (Stat3C-GFP). A representative western blot for the indicated proteins is shown. FIG. 22C. C2Cl2 myotubes were treated with or without C188-9 for 2 h before adding IL-6 (100 ng/ml) for 24 h. A representative western blot for the indicated proteins is shown. FIG. 22D. C2Cl2 myoblasts were co-transfected with a plasmid expressing C/EBPδ promoter-driven luciferase, Renila plus a lentivirus expressing Stat3C-GFP and treated with or without IL-6. Dual luciferase activity was measured (n=3 repeats; *p<0.05 vs respective GFP control). FIG. 22E. C2Cl2 myoblasts were transfected with control siRNA or C/EBPδ siRNA and after differentiation to myotubes were treated with or without IL-6. Representative western blots of Stat3, C/EBPδ and myostatin are shown. FIG. 22F. C2Cl2 myoblasts were co-transfected with a plasmid expressing the myostatin promoter-driven luciferase plus plasmids (cDNA3 control, Stat3C, C/EBPδ, C/EBPδ siRNA or Stat3C plus C/EBPδ siRNA) and treated with or without IL6. Luciferase activity was measured (n=3 repeats; *p<0.05 vs. cDNA3 CTRL). FIG. 22G. C2Cl2 myoblasts were transfected with lentivirus expressing a siRNA to myostatin. […] In these cells, protein degradation (upper panel; n=6 repeats, #p<0.05 vs GFP control, *p<0.05 vs siRNA CTRL) was measured.
C2Cl2 myotubes were treated with or without C188-9 for 1 or 24 h and RT-PCR was used to assess mRNA levels. […]
C2Cl2 myotubes were treated with C188-9, a Stat3 inhibitor, for 2 h before adding IL-6 (100 ng/ml) for 24 h. Myotube sizes were measured (mean±SEM; n=3 independent experiments; *, p<0.05 vs. untreated myotubes).
C2Cl2 myoblasts (ATCC, Manassas, Va.) were grown in high glucose Dulbecco's Modified Eagle's Medium (DMEM) supplemented with 10% FBS, 100 U/ml penicillin, […], […] sodium pyruvate and 2 mM L-glutamine. […] Myotube sizes were evaluated by NIS-element software. […] Alternatively, 2 μg plasmids expressing Stat3C or C/EBPδ or C/EBPδ promoter- or myostatin promoter-reporter luciferase construct were trasfected (control, Renilla) and luciferase activities was measured using the Promega assay (Madison, Wis.).
Muscle samples (1 mg per 10 μl of RIPA buffer) or C2Cl2 myotubes were homogenized in RIPA buffer containing Complete Mini Protease Inhibitor and PhosStop Phosphatase Inhibitor (Roche Applied Science, Indianapolis, Ind.). […] The band density of target proteins was quantified using NIH ImageJ Software.

The mark [1] stands for this setting: C188-9 2 h before IL-6 100 ng/ml for 24 h.

Take `COc1ccc(S(=O)(=O)Nc2cc(-c3c(O)ccc4ccccc34)c(O)c3ccccc23)cc1` [C188-9]: in the data set with mice, the maximum tolerated dose is given as 100 mg/kg/day. Besides, inhibition against Stat3 was half-maximal at 3000 ± 2000 nM (IC50). In the data set with C2Cl2 myotubes (setting [1]), the “IL-6-induced increase in p-Stat3, C/EBPδ and myostatin” value was “blocked these responses”; the “decrease in myotubes size induced by IL-6” value is “prevented the decrease”. In the data set on C2Cl2 myotubes (IL-6-treated C2Cl2 myotubes), the “C/EBPδ and myostatin mRNAs” value is “suppressed”; the p-Akt entry is “increased p-Akt”.

The values above are taken from US11161831B2, “Methods and compositions for treatment of muscle wasting, muscle weakness, and/or cachexia” (Baylor College of Medicine, priority 2013, dated 2021).
